Laboratory results published in EP4570245A1, “COMBINED AGENTS WITH SYNERGISTIC EFFECT AGAINST GLIOMAS” (Eberhard Karls Universität Tübingen Medizinische Fakultät, priority 2023, dated 2025).

Experiments:
[1] = test system: LN18 and T98G glioma cell lines; assay: Clonogenic survival assay of shRNA knockdown cells under CCNU treatment; assay type: cell-based
Procedure: The inventors seeded the cells one day prior to treatment. The inventors then treated the cells with the specified concentrations in serum-free medium for 24 hours. Afterward, they changed the medium back to one containing FCS and incubated the cells for a period ranging from 14 to 21 days. The inventors stained the colonies using 0.5% w/v crystal violet and counted them. Measurements were normalized to the respective vehicle control wells.
Based on the CRISPR/Cas9 screen result a loss of the Fanconi anemia DNA repair pathway should increase the effect of CCNU treatment. Therefore, the inventors induced an shRNA knockdown in LN18 and T98G glioma cell lines for FANCA or FANCD2. These knockdown cell lines were treated in clonogenic survival assays with CCNU in comparison to a control cell line transduced with a vector coding for an shRNA against Luciferase (Figure 2).

[2] = molecular target: T1, RMI (RecQ-mediated genome instability protein) core complex/MM2 interaction (Homo sapiens, UniProt Q96E14+Q9H9A7); settings: inhibitor of RMI core complex/MM2 interaction; MM2 is the binding site of RMI complex on FANCM; cited from earlier work
T1 sequence (Q9H9A7 473-625 limits assumed): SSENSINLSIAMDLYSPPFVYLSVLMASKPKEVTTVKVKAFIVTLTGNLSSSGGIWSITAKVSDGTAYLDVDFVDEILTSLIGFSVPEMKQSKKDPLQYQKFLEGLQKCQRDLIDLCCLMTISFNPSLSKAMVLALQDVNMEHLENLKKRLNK
T1 sequence (Q96E14 1-147): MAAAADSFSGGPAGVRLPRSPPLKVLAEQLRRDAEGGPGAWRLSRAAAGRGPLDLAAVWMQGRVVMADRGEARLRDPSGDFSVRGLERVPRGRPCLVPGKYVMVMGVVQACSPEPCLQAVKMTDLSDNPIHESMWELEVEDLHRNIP

With `O=NN(CCCl)C(=O)NC1CCCCC1` [CCNU, lomustine] the “sensitivity to CCNU treatment” value ([1]; FANCA shRNA knockdown cell lines compared to the luciferase shRNA control) was “more sensitive” and the “sensitivity to CCNU treatment” value ([1]; FANCD2 shRNA knockdown cell lines compared to the luciferase shRNA control) was “more sensitive”.

For `CCOC(=O)N1CCN(C(c2ccccn2)c2c(-c3ccccc3)n(O)c3ccccc23)CC1` (stereo not drawn) [PIP-199], the IC50 [2] is given as 36 µM.
